Test results taken from US20100266716A1, “Natural Photodynamic Agents and their use” (priority 2007, published 2010).

Columns and labels:
Assay type in all cases: cell-based
Salmonella choleraesuis [1] = assay: MBEC device biofilm photodynamic killing (Example 1); design: key to Killing of Salmonella cholerasuis biofilm (eradication or growth): “−” = biofilm eradication at the mentioned conditions (concentration, exposure time and Light source); “+” = biofilm growth; settings: for Killing of Salmonella cholerasuis biofilm (eradication or growth): 16 Hours exposure; for effective as photodynamic agent in killing biofilm organisms: Salmonella choleraesuis and Staphylococcus aureus biofilm, summary of Table 1
Excerpt: (§1) Test microorganisms included Salmonella choleraesuis, Staphylococcus aureus, foodborne pathogens of humans. Test Compounds included Methylene blue, Hemoglobin (blood product), Hemin (blood product), Protoporphyrin (blood product), Annatto Extract (15% Norbixin), beet juice, Canthaxanthin (10%), Beta-carotene (1%), Purple carmine 50%, Carmine lake 60%, Black Carrot extract, Tomato lycopene (5%), sodium copper chlorophyllin, grape skin extract, paprika oleoresin, riboflavin, saffron, titanium dioxide, FD&C blue No1., turmeric oleoresin, FD&C blue No. 2, FD&C Green No. 3, FD&C Red No. 2 (Amaranth), FD&C Red No. 40, FD&C Yellow No. 5, and FD&C Yellow No. 6. Compounds were prepared as 1%, 0.1%, 0.01%, by weight, dissolved in water.
(§2) The light source was a full spectrum fluorescent light or LED light and the contact time was 1 and 16 hours. The study temperature was 37° C.
(§3) Approximately 10^6 organisms in 150 uL Cation Adjusted Mueller Hinton Broth (CAMHB) were placed in each of the wells of a 96 peg MBEC device. The lid of the 96 peg MBEC device was placed on the bottom plate containing organism. The device was placed on a shaker, set to 110 rpm, and incubated at 37° C. for 24 hours to produce biofilms.
(§4) The challenge plates were set up using a sterile 96-well microtitre plate using aseptic techniques in the following manner (one organism per plate, per light exposure time, per light source). Test solutions (200 uL) were placed into each well. The lid was transferred to the challenge plate and exposed to the various light sources for the prescribed exposure times (16 hours). Following the treatment, the pegs were transferred to the recovery media (“recovery plate”) then wrapped in tin foil and incubated at 37° C. for 18 to 24 hours. The recovery plate(s) was wrapped in tin foil, incubated at 37° C. for 24 hours and read visually and by a plate reader, set to an optical density measurement of 630 nm, to determine Minimum Biofilm Eradication Concentration (MBEC) by looking at growth or no growth.

Staphylococcus aureus [2] = assay: as above; design: key to Killing of Staph aureus biofilm (eradication or growth): “−” = biofilm eradication at the mentioned conditions (concentration, exposure time and Light source); “+” = biofilm growth; settings: for Killing of Staph aureus biofilm (eradication or growth): 16 Hours exposure
Excerpt: as §1, §2, §3, §4

E. coli 0157H7 = assay: Photocatalytic food dyes Log10 counts (Example 2)
Excerpt: as §1, §2, §3, §4
(§5) The test was conducted as shown in Example 1, but using Hemin (blood product), Protoporphyrin (blood product), Annatto Extract, and Turmeric. The group of tests organism also included E. Coli 0157H7.

Salmonella choleraesuis [3] = assay: Photocatalytic food dyes Log10 counts (Example 2); settings: S. choleraesuis, Control 7.28
Excerpt: as §1, §2, §3, §4, §5

Staphylococcus aureus [4] = assay: Photocatalytic food dyes Log10 counts (Example 2); settings: Staph. aureus
Excerpt: as §1, §2, §3, §4, §5

Pseudomonas syringae HB9 = assay: Photodynamic activity on plant bacterial pathogen (Example 4)
Description: Test microorganism included Pseudomonas syringae, a food spoilage microorganism and plant pathogen. Test Compounds included Hemin (blood product), Annatto Extract, and Turmeric. Compounds were prepared as 1%, 0.1%, 0.01%, by weight, in 30% Mueller Hinton Broth in phosphate buffered saline. The light source was a broad spectrum fluorescent light or an LED light and the contact time was 16 hours. The study temperature was 28° C.
Approximately 10^6 organisms in 150 uL Cationic
Adjusted Mueller Hinton Broth were placed in each of the wells of a 96 peg MBEC device. The lid of the 96 peg MBEC device was placed on the bottom plate containing organism. The device was placed on a shaker, set to 110 rpm, and incubated at 28° C. for 24 hours.
The challenge plates were set up using a sterile 96-well microtitre plate using aseptic techniques in the following manner (one organism per plate, per light exposure time, per light source). Test solutions (200 uL) were placed into each well. The lid was transferred to the challenge plate and exposed to the various light sources for the prescribed exposure times (16 hours). Following the treatment, the pegs were transferred to the recovery media (“recovery plate”) then wrapped in tin foil and incubated at 28° C. for 18 to 24 hours.
The recovery plate(s) was wrapped in tin foil, incubated at 28° C. for 24 hours and read visually and by a plate reader, set to an optical density measurement of 630 nm, to determine MBEC growth.

[5] = Fluorescent Light 16 hours, 0.01%, Control 6.51
[6] = Fluorescent Light 16 hours, 0.1%, Control 6.51
[7] = Fluorescent Light 16 hours, 1%, Control 6.51
[8] = LED Light 16 hours, 0.01%, Control 6.36
[9] = LED Light 16 hours, 0.1%, Control 6.36
[10] = LED Light 16 hours, 1%, Control 6.36
[11] = Fluorescent Light 16 hours, 0.01%
[12] = Fluorescent Light 16 hours, 0.1%
[13] = Fluorescent Light 16 hours, 0.01%, Control 6.48
[14] = Fluorescent Light 16 hours, 0.1%, Control 6.48
[15] = Fluorescent Light 16 hours, 1%, Control 6.48
[16] = LED Light 16 hours, 0.01%, Control 6.95
[17] = LED Light 16 hours, 0.1%, Control 6.95
[18] = LED Light 16 hours, 1%, Control 6.95

| Compound | Killing of Salmonella cholerasuis biofilm (eradication or growth) (Salmonella choleraesuis [1]; Fluorescent Light, 0.01%) | Killing of Salmonella cholerasuis biofilm (eradication or growth) (Salmonella choleraesuis [1]; Fluorescent Light, 0.1%) | Killing of Salmonella cholerasuis biofilm (eradication or growth) (Salmonella choleraesuis [1]; Fluorescent Light, 1%) | Killing of Salmonella cholerasuis biofilm (eradication or growth) (Salmonella choleraesuis [1]; LED Light, 0.01%) | Killing of Salmonella cholerasuis biofilm (eradication or growth) (Salmonella choleraesuis [1]; LED Light, 0.1%) | Killing of Salmonella cholerasuis biofilm (eradication or growth) (Salmonella choleraesuis [1]; LED Light, 1%) | Killing of Staph aureus biofilm (eradication or growth) (Staphylococcus aureus [2]; Fluorescent Light, 0.01%) | Killing of Staph aureus biofilm (eradication or growth) (Staphylococcus aureus [2]; Fluorescent Light, 0.1%) | Killing of Staph aureus biofilm (eradication or growth) (Staphylococcus aureus [2]; Fluorescent Light, 1%) | Killing of Staph aureus biofilm (eradication or growth) (Staphylococcus aureus [2]; LED Light, 0.01%) | Killing of Staph aureus biofilm (eradication or growth) (Staphylococcus aureus [2]; LED Light, 0.1%) | Killing of Staph aureus biofilm (eradication or growth) (Staphylococcus aureus [2]; LED Light, 1%) | Average Log10 counts (E. coli 0157H7; [5]) [Log10] | Average Log10 counts (E. coli 0157H7; [6]) [Log10] | Average Log10 counts (E. coli 0157H7; [7]) [Log10] | Average Log10 counts (E. coli 0157H7; [8]) [Log10] | Average Log10 counts (E. coli 0157H7; [9]) [Log10] | Average Log10 counts (E. coli 0157H7; [10]) [Log10] | Average Log10 counts (Salmonella choleraesuis [3]; [11]) [Log10] | Average Log10 counts (Salmonella choleraesuis [3]; [12]) [Log10] | further results |
| --- | --- | --- | --- | --- | --- | --- | --- | --- | --- | --- | --- | --- | --- | --- | --- | --- | --- | --- | --- | --- | --- |
| CN(C)c1ccc2nc3ccc(=[N+](C)C)cc-3sc2c1 [Methylene blue, reference compound] | − | − | − | − | − | − | − | − | − | − | − | − | 3.41 | 0.79 | 0.35 | 1.77 | 0.00 | 0.00 | 0.00 | 0.00 | Average Log10 counts (Salmonella choleraesuis [3]; Fluorescent Light 16 hours, 1%): 0.00 Log10; Average Log10 counts (Salmonella choleraesuis [3]; LED Light 16 hours, 0.01%): 2.27 Log10; Average Log10 counts (Salmonella choleraesuis [3]; LED Light 16 hours, 0.1%): 0.00 Log10; Average Log10 counts (Salmonella choleraesuis [3]; LED Light 16 hours, 1%): 3.20 Log10; Average Log10 counts (Staphylococcus aureus [4]; [13]): 3.20 Log10; Average Log10 counts (Staphylococcus aureus [4]; [14]): 0.00 Log10; Average Log10 counts (Staphylococcus aureus [4]; [15]): 0.00 Log10; Average Log10 counts (Staphylococcus aureus [4]; [16]): 5.71 Log10; Average Log10 counts (Staphylococcus aureus [4]; [17]): 5.40 Log10; Average Log10 counts (Staphylococcus aureus [4]; [18]): 4.84 Log10 |
| Hemin | − | − | − | + | + | − | + | + | + | + | + | + | 3.17 | 3.79 | 3.06 | 4.18 | 4.22 | 0.00 | 2.79 | 3.85 | Average Log10 growth reductions (Pseudomonas syringae HB9; [11]): 1.07 log10 CFU; Average Log10 growth reductions (Pseudomonas syringae HB9; [12]): 0.92 log10 CFU; Average Log10 growth reductions (Pseudomonas syringae HB9; Fluorescent Light 16 hours, 1%): 1.51 log10 CFU; Average Log10 growth reductions (Pseudomonas syringae HB9; LED Light 16 hours, 0.01%): 1.48 log10 CFU; Average Log10 growth reductions (Pseudomonas syringae HB9; LED Light 16 hours, 0.1%): 1.32 log10 CFU; Average Log10 growth reductions (Pseudomonas syringae HB9; LED Light 16 hours, 1%): 3.97 log10 CFU; effective as photodynamic agent in killing biofilm organisms (Salmonella choleraesuis [1]): Effective; Average Log10 counts (Salmonella choleraesuis [3]; Fluorescent Light 16 hours, 1%): 4.55 Log10; Average Log10 counts (Salmonella choleraesuis [3]; LED Light 16 hours, 0.01%): 4.02 Log10; Average Log10 counts (Salmonella choleraesuis [3]; LED Light 16 hours, 0.1%): 4.48 Log10; Average Log10 counts (Salmonella choleraesuis [3]; LED Light 16 hours, 1%): 4.74 Log10; Average Log10 counts (Staphylococcus aureus [4]; [13]): 2.21 Log10; Average Log10 counts (Staphylococcus aureus [4]; [14]): 0.79 Log10; Average Log10 counts (Staphylococcus aureus [4]; [15]): 0.00 Log10; Average Log10 counts (Staphylococcus aureus [4]; [16]): 5.52 Log10; Average Log10 counts (Staphylococcus aureus [4]; [17]): 3.75 Log10; Average Log10 counts (Staphylococcus aureus [4]; [18]): 1.51 Log10 |
| Protoporphyrin | − | − | − | + | + | − | + | + | + | + | + | + | 0.44 | 0.57 | 0.00 | 4.04 | 3.48 | 3.60 | 2.10 | 2.33 | concentration at which useful against Salmonella (Salmonella choleraesuis [1]; LED light): greater than 1%; effective as photodynamic agent in killing biofilm organisms (Salmonella choleraesuis [1]): Effective; concentration at which useful against Salmonella (Salmonella choleraesuis [1]; fluorescent light): greater than 0.01%; concentration at which useful against Staph A (Staphylococcus aureus [2]; fluorescent light): greater than 0.1%; Average Log10 counts (Salmonella choleraesuis [3]; Fluorescent Light 16 hours, 1%): 3.32 Log10; Average Log10 counts (Salmonella choleraesuis [3]; LED Light 16 hours, 0.01%): 3.40 Log10; Average Log10 counts (Salmonella choleraesuis [3]; LED Light 16 hours, 0.1%): 3.67 Log10; Average Log10 counts (Salmonella choleraesuis [3]; LED Light 16 hours, 1%): 2.92 Log10; Average Log10 counts (Staphylococcus aureus [4]; [13]): 0.00 Log10; Average Log10 counts (Staphylococcus aureus [4]; [14]): 0.00 Log10; Average Log10 counts (Staphylococcus aureus [4]; [15]): 0.00 Log10; Average Log10 counts (Staphylococcus aureus [4]; [16]): 1.29 Log10; Average Log10 counts (Staphylococcus aureus [4]; [17]): 0.50 Log10; Average Log10 counts (Staphylococcus aureus [4]; [18]): 3.10 Log10 |
| sodium copper chlorophyllin | + | + | + | + | + | + | + | + | + | + | + | + |  |  |  |  |  |  |  |  |  |
